Source: patent publication US10829796B2, “Bacteria identification and antimicrobial susceptibility test” (priority 2015, dated 2020)

Experiments:
Assay in all cases: Antibiotic susceptibility testing (colour of media), spiked milk
Assay type in all cases: cell-based
Escherichia coli = conditions: 37° C., plate configuration #3
Experimental: (§1) Tables 36 to 38 which follow show further examples of antibiotic susceptibility testing performed in accordance with the present invention. Table 36, antibiotic susceptibility testing of Staphylococcus aureus in Mueller Hinton and Tryptic Soy Broth at pre-incubation and at between 15-24 h. Tables 37 and 38, antimicrobial susceptibility testing of Streptococcus uberis and E. coli with the addition of gram negative specific antibiotic aztreonam. Tables 38 to 49 show further examples of antibiotic susceptibility testing and the outcomes are aligned with the described inventions.

Staphylococcus aureus = conditions: for Colour of media: bacteria sample 5c; for Colour of media in each well: T~16 h, 37° C., plate configuration #3
Experimental: as §1

Streptococcus uberis = conditions: T~16 h, 37° C., bacteria samples 6d, plate configuration #3
Experimental: as §1

CC1(C)S[C@@H]2[C@H](NC(=O)Cc3ccccc3)C(=O)N2[C@H]1C(=O)O [benzyl penicillin]
Red: Colour of media in each well (Escherichia coli; t~16 h, bacteria samples 4e, Benzyl Penicillin or Cloxacillin 100 μg/ml) | Colour of media in each well (Escherichia coli; t~16 h, bacteria samples 4e, Benzyl Penicillin or Cloxacillin 1,000 μg/ml) | Colour of media in each well (Escherichia coli; t~16 h, bacteria samples 4e, Benzyl Penicillin or Cloxacillin 10,000 μg/ml)
red: Colour of media in each well (Escherichia coli; T~16 h, bacteria samples 4c, Benzyl Penicillin or Cloxacillin 100 μg/ml) | Colour of media in each well (Escherichia coli; T~16 h, bacteria samples 4c, Benzyl Penicillin or Cloxacillin 1,000 μg/ml) | Colour of media in each well (Escherichia coli; T~16 h, bacteria samples 4c, Benzyl Penicillin or Cloxacillin 10,000 μg/ml) | Colour of media (Staphylococcus aureus; T = 0 hours (pre incubation), drug 0.01 μg/ml, Mueller Hinton (70 ul composition 26)) | Colour of media (Staphylococcus aureus; T = 0 hours (pre incubation), drug 0.01 μg/ml, Tryptic Soy (70 ul composition 2c)) | Colour of media (Staphylococcus aureus; T = 0 hours (pre incubation), drug 0.01 μg/ml, Tryptic Soy, wells H (20 ul composition 2c)) | Colour of media (Staphylococcus aureus; T = 0 hours (pre incubation), drug 0.05 μg/ml, Mueller Hinton (70 ul composition 26)) | Colour of media (Staphylococcus aureus; T = 0 hours (pre incubation), drug 0.05 μg/ml, Tryptic Soy (70 ul composition 2c)) | Colour of media (Staphylococcus aureus; T = 0 hours (pre incubation), drug 0.05 μg/ml, Tryptic Soy, wells H (20 ul composition 2c)) | Colour of media (Staphylococcus aureus; T = 0 hours (pre incubation), drug 0.1 μg/ml, Mueller Hinton (70 ul composition 26)) | Colour of media (Staphylococcus aureus; T = 0 hours (pre incubation), drug 0.1 μg/ml, Tryptic Soy (70 ul composition 2c)) | Colour of media (Staphylococcus aureus; T = 0 hours (pre incubation), drug 0.1 μg/ml, Tryptic Soy, wells H (20 ul composition 2c)) | Colour of media (Staphylococcus aureus; T = 0 hours (pre incubation), drug 0.5 μg/ml, Mueller Hinton (70 ul composition 26)) | Colour of media (Staphylococcus aureus; T = 0 hours (pre incubation), drug 0.5 μg/ml, Tryptic Soy (70 ul composition 2c)) | Colour of media (Staphylococcus aureus; T = 0 hours (pre incubation), drug 0.5 μg/ml, Tryptic Soy, wells H (20 ul composition 2c)) | Colour of media (Staphylococcus aureus; T = 0 hours (pre incubation), drug 1 μg/ml, Mueller Hinton (70 ul composition 26)) | Colour of media (Staphylococcus aureus; T = 0 hours (pre incubation), drug 1 μg/ml, Tryptic Soy (70 ul composition 2c)) | Colour of media (Staphylococcus aureus; T = 0 hours (pre incubation), drug 1 μg/ml, Tryptic Soy, wells H (20 ul composition 2c)) | Colour of media (Staphylococcus aureus; T = 0 hours (pre incubation), drug 5 μg/ml, Mueller Hinton (70 ul composition 26)) | Colour of media (Staphylococcus aureus; T = 0 hours (pre incubation), drug 5 μg/ml, Tryptic Soy (70 ul composition 2c)) | Colour of media (Staphylococcus aureus; T = 0 hours (pre incubation), drug 5 μg/ml, Tryptic Soy, wells H (20 ul composition 2c)) | Colour of media (Staphylococcus aureus; T = 0 hours (pre incubation), drug 10 μg/ml, Mueller Hinton (70 ul composition 26)) | Colour of media (Staphylococcus aureus; T = 0 hours (pre incubation), drug 10 μg/ml, Tryptic Soy (70 ul composition 2c)) | Colour of media (Staphylococcus aureus; T = 0 hours (pre incubation), drug 10 μg/ml, Tryptic Soy, wells H (20 ul composition 2c)) | Colour of media (Staphylococcus aureus; T = 0 hours (pre incubation), drug 50 μg/ml, Mueller Hinton (70 ul composition 26)) | Colour of media (Staphylococcus aureus; T = 0 hours (pre incubation), drug 50 μg/ml, Tryptic Soy (70 ul composition 2c)) | Colour of media (Staphylococcus aureus; T = 0 hours (pre incubation), drug 50 μg/ml, Tryptic Soy, wells H (20 ul composition 2c)) | Colour of media (Staphylococcus aureus; T = 0 hours (pre incubation), drug 100 μg/ml, Mueller Hinton (70 ul composition 26)) | Colour of media (Staphylococcus aureus; T = 0 hours (pre incubation), drug 100 μg/ml, Tryptic Soy (70 ul composition 2c)) | Colour of media (Staphylococcus aureus; T = 0 hours (pre incubation), drug 100 μg/ml, Tryptic Soy, wells H (20 ul composition 2c)) | Colour of media (Staphylococcus aureus; T = 0 hours (pre incubation), drug 500 μg/ml, Mueller Hinton (70 ul composition 26)) | Colour of media (Staphylococcus aureus; T = 0 hours (pre incubation), drug 500 μg/ml, Tryptic Soy (70 ul composition 2c)) | Colour of media (Staphylococcus aureus; T = 0 hours (pre incubation), drug 500 μg/ml, Tryptic Soy, wells H (20 ul composition 2c)) | Colour of media (Staphylococcus aureus; T = 15-24 h at 35° C., drug 0.01 μg/ml, Mueller Hinton (70 ul composition 26)) | Colour of media (Staphylococcus aureus; T = 15-24 h at 35° C., drug 0.01 μg/ml, Tryptic Soy, wells H (20 ul composition 2c)) | Colour of media (Staphylococcus aureus; T = 15-24 h at 35° C., drug 0.05 μg/ml, Mueller Hinton (70 ul composition 26)) | Colour of media (Staphylococcus aureus; T = 15-24 h at 35° C., drug 0.05 μg/ml, Tryptic Soy (70 ul composition 2c)) | Colour of media (Staphylococcus aureus; T = 15-24 h at 35° C., drug 0.05 μg/ml, Tryptic Soy, wells H (20 ul composition 2c)) | Colour of media (Staphylococcus aureus; T = 15-24 h at 35° C., drug 0.1 μg/ml, Mueller Hinton (70 ul composition 26)) | Colour of media (Staphylococcus aureus; T = 15-24 h at 35° C., drug 0.1 μg/ml, Tryptic Soy (70 ul composition 2c)) | Colour of media (Staphylococcus aureus; T = 15-24 h at 35° C., drug 0.1 μg/ml, Tryptic Soy, wells H (20 ul composition 2c)) | Colour of media (Staphylococcus aureus; T = 15-24 h at 35° C., drug 0.5 μg/ml, Mueller Hinton (70 ul composition 26)) | Colour of media (Staphylococcus aureus; T = 15-24 h at 35° C., drug 0.5 μg/ml, Tryptic Soy (70 ul composition 2c)) | Colour of media (Staphylococcus aureus; T = 15-24 h at 35° C., drug 0.5 μg/ml, Tryptic Soy, wells H (20 ul composition 2c)) | Colour of media (Staphylococcus aureus; T = 15-24 h at 35° C., drug 1 μg/ml, Mueller Hinton (70 ul composition 26)) | Colour of media (Staphylococcus aureus; T = 15-24 h at 35° C., drug 1 μg/ml, Tryptic Soy (70 ul composition 2c)) | Colour of media (Staphylococcus aureus; T = 15-24 h at 35° C., drug 1 μg/ml, Tryptic Soy, wells H (20 ul composition 2c)) | Colour of media (Staphylococcus aureus; T = 15-24 h at 35° C., drug 5 μg/ml, Mueller Hinton (70 ul composition 26)) | Colour of media (Staphylococcus aureus; T = 15-24 h at 35° C., drug 5 μg/ml, Tryptic Soy (70 ul composition 2c)) | Colour of media (Staphylococcus aureus; T = 15-24 h at 35° C., drug 5 μg/ml, Tryptic Soy, wells H (20 ul composition 2c)) | Colour of media (Staphylococcus aureus; T = 15-24 h at 35° C., drug 10 μg/ml, Mueller Hinton (70 ul composition 26)) | Colour of media (Staphylococcus aureus; T = 15-24 h at 35° C., drug 10 μg/ml, Tryptic Soy (70 ul composition 2c)) | Colour of media (Staphylococcus aureus; T = 15-24 h at 35° C., drug 10 μg/ml, Tryptic Soy, wells H (20 ul composition 2c)) | Colour of media (Staphylococcus aureus; T = 15-24 h at 35° C., drug 50 μg/ml, Mueller Hinton (70 ul composition 26)) | Colour of media (Staphylococcus aureus; T = 15-24 h at 35° C., drug 50 μg/ml, Tryptic Soy (70 ul composition 2c)) | Colour of media (Staphylococcus aureus; T = 15-24 h at 35° C., drug 50 μg/ml, Tryptic Soy, wells H (20 ul composition 2c)) | Colour of media (Staphylococcus aureus; T = 15-24 h at 35° C., drug 100 μg/ml, Mueller Hinton (70 ul composition 26)) | Colour of media (Staphylococcus aureus; T = 15-24 h at 35° C., drug 100 μg/ml, Tryptic Soy (70 ul composition 2c)) | Colour of media (Staphylococcus aureus; T = 15-24 h at 35° C., drug 100 μg/ml, Tryptic Soy, wells H (20 ul composition 2c)) | Colour of media (Staphylococcus aureus; T = 15-24 h at 35° C., drug 500 μg/ml, Mueller Hinton (70 ul composition 26)) | Colour of media (Staphylococcus aureus; T = 15-24 h at 35° C., drug 500 μg/ml, Tryptic Soy (70 ul composition 2c)) | Colour of media (Staphylococcus aureus; T = 15-24 h at 35° C., drug 500 μg/ml, Tryptic Soy, wells H (20 ul composition 2c)) | Colour of media in each well (Staphylococcus aureus; bacteria samples 5c, Benzyl Penicillin or Cloxacillin 1 μg/ml) | Colour of media in each well (Staphylococcus aureus; bacteria samples 5c, Benzyl Penicillin or Cloxacillin 10 μg/ml) | Colour of media in each well (Staphylococcus aureus; bacteria samples 5c, Benzyl Penicillin or Cloxacillin 100 μg/ml) | Colour of media in each well (Staphylococcus aureus; bacteria samples 5c, Benzyl Penicillin or Cloxacillin 1,000 μg/ml) | Colour of media in each well (Staphylococcus aureus; bacteria samples 5c, Benzyl Penicillin or Cloxacillin 10,000 μg/ml) | Colour of media in each well (Staphylococcus aureus; bacteria samples 5e, Benzyl Penicillin or Cloxacillin 1 μg/ml) | Colour of media in each well (Staphylococcus aureus; bacteria samples 5e, Benzyl Penicillin or Cloxacillin 10 μg/ml) | Colour of media in each well (Staphylococcus aureus; bacteria samples 5e, Benzyl Penicillin or Cloxacillin 100 μg/ml) | Colour of media in each well (Staphylococcus aureus; bacteria samples 5e, Benzyl Penicillin or Cloxacillin 1,000 μg/ml) | Colour of media in each well (Staphylococcus aureus; bacteria samples 5e, Benzyl Penicillin or Cloxacillin 10,000 μg/ml) | Colour of media in each well (Streptococcus uberis; Benzyl Penicillin or Cloxacillin 1 μg/ml) | Colour of media in each well (Streptococcus uberis; Benzyl Penicillin or Cloxacillin 10 μg/ml) | Colour of media in each well (Streptococcus uberis; Benzyl Penicillin or Cloxacillin 100 μg/ml) | Colour of media in each well (Streptococcus uberis; Benzyl Penicillin or Cloxacillin 1,000 μg/ml) | Colour of media in each well (Streptococcus uberis; Benzyl Penicillin or Cloxacillin 10,000 μg/ml)
yellow: Colour of media in each well (Escherichia coli; T~16 h, bacteria samples 4c, Benzyl Penicillin or Cloxacillin 1 μg/ml) | Colour of media in each well (Escherichia coli; T~16 h, bacteria samples 4c, Benzyl Penicillin or Cloxacillin 10 μg/ml) | Colour of media in each well (Escherichia coli; t~16 h, bacteria samples 4e, Benzyl Penicillin or Cloxacillin 1 μg/ml) | Colour of media in each well (Escherichia coli; t~16 h, bacteria samples 4e, Benzyl Penicillin or Cloxacillin 10 μg/ml) | Colour of media (Staphylococcus aureus; T = 15-24 h at 35° C., drug 0.01 μg/ml, Tryptic Soy (70 ul composition 2c))
